# Experimental data taken from patent US12569536B2, “Macrocyclic peptides for targeted inhibition of autophagy” (Board of Regents, The University of Texas System, priority 2019, dated 2026).
# Entries after “also recorded” stand apart in the source; their conditions may differ. Numbered stars: 1 amine (or outer) side, 2 acyl side, 3 side chain; on linkers, the order of the positions; unused ones are H or OH. Bridge positions count the residues as written; N and C are the ends. Square brackets hold non-standard residues; d marks the D form. Ends that are not written are not given here. Peptide text beside a SMILES is read from it. Glutaryl = O=C(CCCC(=O)[*:2])[*:1]; NMeA = CN[C@@H](C)C(=O)O
# Key:
# LC3A = molecular target: T1, LC3A (Homo sapiens, UniProt Q9H492); experiment: Binding of radiolabeled individual peptide fusions to immobilized LC3A; conditions: for Binding analysis of clones on immobilized LC3 (FIG. 3E): radiolabeled peptide fusions
# T1 construct: made in house
# Procedure: A randomized 8-mer peptide library (with a diversity of 3.78×10^10 unique sequences) was designed, and SUPR peptide mRNA display selections incorporating N-methyl alanine and proteinase-K screening were performed against recombinant LC3 (FIGS. 3A-E). For this, milligram quantities of His6-LC3A were bacterially expressed and purified, chemically biotinylated, and immobilized on streptavidin agarose resin for binding selection. Prior to each round of selection, mRNA-fusion libraries were translated using an in vitro rabbit reticulocyte lysate system incorporating amber-codon nonsense suppression with N-methyl alanine. Fusions were cyclized between the side chain of lysine and the N-terminus and briefly exposed to proteinase K to eliminate any sequences particularly susceptible to proteolysis. Binding selections were carried out by incubating mRNA display libraries with the immobilized His6-LC3A followed by elution in SDS and PCR amplification. After seven rounds of binding selection, the number of PCR cycles required to recover the enriched dsDNA after each binding selection had reduced by 40% (FIG. 3C). […] Over 90% of sequences in the library contained an N-methyl alanine residue at a conserved position adjacent to the fixed lysine residue. […] The majority of sequences contained variations of the canonical Autophagy-Interacting Motif observed in natural LC3 adaptor proteins (FIG. 4). […] Binding was confirmed by incubation of radiolabeled individual peptide fusions with immobilized LC3A (FIG. 3E; Table 2).
# OVCAR8 cells = conditions: 50 μM peptide; for cell viability (MTT), DIRAS3-induced (autophagic) cells: OVCAR8, Dox-induced, 72 hours
# Procedure: (§1) FIGS. 6A-D: SUPR4B in the DIRAS3 autophagy model. FIGS. 6A&B—MTT viability assays with 50 M linear and cyclic SUPR 4B on non-DIRAS3 induced OVCAR8 (FIG. 6B) and SKOv3 (FIG. 6A) cells. […] Induction was performed using 1 g/mL DOX.
# (§2) FIGS. 8A-F: SUPR4B in the DIRAS3 autophagy model. […] Inhibition of autophagy by the present compound were hypothesized to restore cellular growth. […] FIGS. 8A&B—MTT viability assays with 50 M linear and cyclic SUPR on non-DIRAS3 induced OVCAR8 (FIG. 8A) and SKOv3 (FIG. 8B) cells. […] FIGS. 8C&D—MTT viability assays on the effect of 50 M linear and cyclic LC3 SUPR4B on DIRAS3-induced OVCAR8 (FIG. 8C) and SKOv3 (FIG. 8D) cells. Induction was performed using 1 g/mL DOX.
# (§3) After selection, the library was sequenced and lead compounds were subjected to thermodynamic and cellular assays to develop a structure-activity relationship modeling the interaction between the SUPR peptide and the target.
# SKOv3 cells = experiment: MTT viability assay in DIRAS3 autophagy model; conditions: 50 μM peptide; for cell viability (MTT), DIRAS3-induced (autophagic) cells: SKOv3, Dox-induced, 72 hours
# Procedure: as §1, §2, §3
# OVCAR8-ARHI cells = experiment: Western blotting of p62 and LC3I/LC3II in DIRAS3-induced cells; assay type: cell-based; conditions: peptide-treated, 72 h
# Procedure: (§4) FIGS. 7A-B: SUPR4B in the DIRAS3 autophagy model.
# (§5) FIGS. 8A-F: SUPR4B in the DIRAS3 autophagy model. […] Induction was performed using 1 g/mL DOX.
# SKOv3-ARHI cells = experiment: as above; assay type: cell-based; conditions: peptide-treated, 72 h
# Procedure: as §4, §5
# [1] = system: OVCAR8 orthotopic ovarian tumors; experiment: Orthotopic ovarian tumor model with carboplatin; assay type: in vivo; conditions: mice, IP OVCAR8; three times per week for four weeks; SUPR peptide 10 mg/kg or carboplatin 25 mg/kg
# Procedure: FIG. 13: SUPR4B1W sensitizes orthotopic ovarian tumors to carboplatin treatment. Mice were injected IP with 2 million OVCAR8 cells and treated three times per week for four weeks with vehicle control, SUPR peptide (10 mg/kg), carboplatin (25 mg/kg), or combination of SUPR peptide and carboplatin. At the end of four weeks, mice were sacrificed and tumors were dissected. […] For each vertical groups of data points, the top group represents Mouse Weight and the bottom group represents Tumor Weight.
# In animal model experiments, mice were implanted with a cisplatin-resistant ovarian cancer cell line (OVCAR8) and treated with carboplatin, SUPR4B1W peptide, or carboplatin+SUPR4B1W peptide for 4 weeks. At the conclusion of the study, the mice were sacrificed and the mass of the intraperitoneal tumors measured.
compound,measurement,setting,value
"CSCC[C@@H]1NC(=O)CCCC(=O)NCCCC[C@@H](C(=O)O)NC(=O)[C@H](C)N(C)C(=O)[C@H](C)NC(=O)[C@H]([C@@H](C)O)NC(=O)[C@H](C(C)C)NC(=O)[C@H](CCCNC(=N)N)NC(=O)[C@H](Cc2c[nH]cn2)NC(=O)[C@@H]2CCCN2C(=O)[C@H](Cc2ccccc2)NC1=O [Clone 4B, MFPHRVTAZK] (MFPHRVTA[NMeA]K-OH; linker N-10 via Glutaryl)",Binding analysis of clones on immobilized LC3 (FIG. 3E),LC3A,selective LC3 binding; also recorded: nearly quantitative binding
same,"cell viability (MTT), DIRAS3-induced (autophagic) cells",OVCAR8 cells,significant rescue of viability
same,"cell viability (MTT), non-DIRAS3 induced cells","OVCAR8 cells; OVCAR8, no Dox (non-autophagic), up to 72 hours",no statistically significant effect on cell viability
same,"cell viability (MTT), DIRAS3-induced (autophagic) cells",SKOv3 cells,significant rescue of viability
same,"cell viability (MTT), non-DIRAS3 induced cells","SKOv3 cells; SKOv3, no Dox (non-autophagic), up to 72 hours",no statistically significant effect on cell viability
same,LC3I/LC3II ratio,OVCAR8-ARHI cells,decreased LC3I/LC3II ratio
same,p62 protein levels,OVCAR8-ARHI cells,increase in p62 protein levels
same,LC3I/LC3II ratio,SKOv3-ARHI cells,decreased LC3I/LC3II ratio
same,p62 protein levels,SKOv3-ARHI cells,increase in p62 protein levels
"N.N.O=C([O-])C1(C(=O)[O-])CCC1.[Pt+2] [carboplatin, reference compound]","final tumor mass, agent administered alone",[1],expected reduction in tumor volume
"CCN(CC)CCCC(C)Nc1ccnc2cc(Cl)ccc12 (stereo not shown) [chloroquine, reference compound]","cell viability (MTT), DIRAS3-induced (autophagic) cells",OVCAR8 cells,did not result in a statistically significant increase in cell viability
same,"cell viability (MTT), DIRAS3-induced (autophagic) cells",SKOv3 cells,did not result in a statistically significant increase in cell viability
MFSHRVTLZK (MFSHRVTL[NMeA]K; bridge N-10) [Clone 25C],Binding analysis of clones on immobilized LC3 (FIG. 3E),LC3A,selective LC3 binding
MLARSLRDZK (MLARSLRD[NMeA]K; bridge N-10) [Clone 25I],% of radiolabeled peptide-fusions bound to immobilized LC3,LC3A,4%
MLSDIPVNDK [Clone 4E],Binding analysis of clones on immobilized LC3 (FIG. 3E),LC3A,selective LC3 binding
MNARSLRDZK (MNARSLRD[NMeA]K; bridge N-10) [Clone 25F],Binding analysis of clones on immobilized LC3 (FIG. 3E),LC3A,selective LC3 binding
MSLHRVTVZK (MSLHRVTV[NMeA]K; bridge N-10) [Clone 4C],% of radiolabeled peptide-fusions bound to immobilized LC3,LC3A,1%
MYARSLRDZK (MYARSLRD[NMeA]K; bridge N-10) [Clone 25A],Binding analysis of clones on immobilized LC3 (FIG. 3E),LC3A,selective LC3 binding
MYTRRVRLZK (MYTRRVRL[NMeA]K; bridge N-10) [Clone 25E],% of radiolabeled peptide-fusions bound to immobilized LC3,LC3A,3%
